Among the test systems are 786-0 renal; ACHN renal; CCRF-CEM leukemia; HOP-92 NSCLC; M14 melanoma; MALME-3M melanoma; NCI-H460 lung; OVCAR-3 ovarian; OVCAR-4 ovarian; RXF 393 renal; SF-539 CNS; SK-MEL-2 melanoma; SW-620 colon; TK-10 renal; UO-31 renal; BT-549 breast; MCF7 breast; MDA-MB-435; T-47D breast; MDA-N.
Assay in all cases: growth of human tumour cells (NCI), 48 h

The structures appear in SMILES notation.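 Protocol summary: plate cells (96-well), add compound at 5 concentrations, incubate 48 h, interpolate endpoints linearly. Definition used: TGI = concentration required for complete inhibition of growth.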 Where only a bound is given, the exact number is not on record here.

The source of these data is PubChem BioAssay (NCI).

Turning to `CCOc1ccc(NC(=O)/C(Cc2nc3ccccc3[nH]c2=O)=N\O)cc1`, the TGI in the assay on 786-0 renal, in the assay on ACHN renal, in the assay on CCRF-CEM leukemia, in the assay with HOP-92 NSCLC, in the assay with M14 melanoma and in the assay on MALME-3M melanoma was more than 100 µM in each case. The TGI in the assay on NCI-H460 lung, in the assay with OVCAR-3 ovarian, in the assay with OVCAR-4 ovarian, with RXF 393 renal, in the assay with SF-539 CNS and in the assay on SK-MEL-2 melanoma was more than 100 µM each time. For the same compound, the TGI in the assay with SW-620 colon, in the assay on TK-10 renal and in the assay on UO-31 renal was more than 100 µM in each case.

In the case of `SCc1ccc(-c2ccc(CS)cc2)cc1`, the TGI in the assay with 786-0 renal came to 59.5 µM; in the assay on ACHN renal, 43.1 µM; in the assay with BT-549 breast, 6.47 µM; in the assay on CCRF-CEM leukemia, 10.7 µM; with HOP-92 NSCLC it was 40.8 µM; with M14 melanoma it was 29.8 µM. The TGI with MALME-3M melanoma is 36.1 µM; with MCF7 breast it was 29.3 µM; with MDA-MB-435 it was 22.8 µM; with NCI-H460 lung, 25.1 µM; with OVCAR-3 ovarian it was 32.2 µM; with OVCAR-4 ovarian, 17.5 µM. The TGI is 32.9 µM in the assay on RXF 393 renal; 33.5 µM with SF-539 CNS; 41.5 µM with SK-MEL-2 melanoma; 60 µM in the assay on SW-620 colon; 41.6 µM in the assay on T-47D breast; more than 61.3 µM with TK-10 renal. For the same compound, the TGI in the assay on UO-31 renal is 37.8 µM.

As to `CC(=O)OC1COC(n2c(O)c(N=Nc3ccc([N+](=O)[O-])cc3)c3cc(Br)c([N+](=O)[O-])cc32)C(OC(C)=O)C1OC(C)=O` (stereo unspecified), the TGI was more than 100 µM in the assay on 786-0 renal; 93.6 µM with ACHN renal; more than 100 µM with CCRF-CEM leukemia; 78 µM in the assay on HOP-92 NSCLC; more than 100 µM in the assay on M14 melanoma; more than 100 µM in the assay with MALME-3M melanoma. In addition, the TGI in the assay with NCI-H460 lung was more than 100 µM; with OVCAR-3 ovarian, more than 100 µM; in the assay with OVCAR-4 ovarian it was more than 100 µM; with RXF 393 renal, 89.8 µM; with SF-539 CNS, more than 100 µM; in the assay on SK-MEL-2 melanoma, more than 100 µM. Moreover, the TGI in the assay on SW-620 colon and with TK-10 renal was more than 100 µM throughout.

`CCOP(=O)(OCC)c1cc2cc(O)ccc2oc1=O`: the TGI with 786-0 renal, in the assay on ACHN renal, with CCRF-CEM leukemia, with HOP-92 NSCLC, in the assay with M14 melanoma and with MCF7 breast was more than 100 µM each time. The TGI in the assay on MDA-MB-435, in the assay on MDA-N, with NCI-H460 lung, in the assay on OVCAR-3 ovarian, in the assay on OVCAR-4 ovarian and in the assay with RXF 393 renal was more than 100 µM each time. Moreover, the TGI with SF-539 CNS is more than 100 µM; in the assay with SW-620 colon, more than 100 µM; in the assay on T-47D breast, more than 100 µM; in the assay on TK-10 renal, more than 100 µM; in the assay with UO-31 renal it was 0.151 µM.

In the case of `Cc1nc2ccc(F)cc2c2c1CCN2c1ccccc1`, the TGI in the assay on 786-0 renal was more than 100 µM; in the assay with ACHN renal, 67 µM; with BT-549 breast, 44.2 µM; with CCRF-CEM leukemia it was 53.2 µM; with HOP-92 NSCLC it was 37.8 µM; in the assay with MALME-3M melanoma it was 40.8 µM. Besides, the TGI in the assay on MCF7 breast is 64.7 µM; with MDA-MB-435, 32.8 µM; with NCI-H460 lung, 36.1 µM; in the assay with OVCAR-3 ovarian it was more than 100 µM; in the assay on OVCAR-4 ovarian, more than 100 µM; in the assay on RXF 393 renal it was 35.7 µM. Also, the TGI is 44 µM with SF-539 CNS; more than 100 µM with SW-620 colon; 85.8 µM in the assay on T-47D breast; 71.5 µM with TK-10 renal; 68.1 µM in the assay with UO-31 renal.

For the compound `ClCCN(CC#CCCCC#CCN(CCCl)CCCl)CCCl`, the TGI in the assay with 786-0 renal was determined as 20.7 µM; in the assay on ACHN renal it was 15.2 µM; in the assay on CCRF-CEM leukemia, 10.6 µM; with HOP-92 NSCLC, 43.1 µM; in the assay on M14 melanoma, 28.6 µM; in the assay with MALME-3M melanoma, 32.5 µM. In addition, the TGI in the assay with MCF7 breast was 37.5 µM; in the assay on NCI-H460 lung it was 16.3 µM; in the assay with OVCAR-3 ovarian, 26.7 µM; with OVCAR-4 ovarian, 61.2 µM; in the assay on RXF 393 renal it was 33.5 µM; in the assay with SF-539 CNS, 27 µM. The TGI in the assay with SK-MEL-2 melanoma came to 23.4 µM; in the assay with SW-620 colon, 23.3 µM; in the assay on TK-10 renal, 41 µM; with UO-31 renal, 47 µM.

For `O=c1oc2cc(O)ccc2c(O)c1C(c1ccc2ccccc2c1)c1c(O)c2ccc(O)cc2oc1=O`, the TGI with 786-0 renal, in the assay with BT-549 breast, with CCRF-CEM leukemia, in the assay on HOP-92 NSCLC, with M14 melanoma and with MCF7 breast was more than 100 µM in each case. Further, the TGI in the assay on MDA-MB-435, in the assay with NCI-H460 lung, with OVCAR-3 ovarian, in the assay with RXF 393 renal, in the assay on SF-539 CNS and in the assay with SK-MEL-2 melanoma was more than 100 µM throughout. The TGI was more than 100 µM in the assay on SW-620 colon, more than 100 µM with T-47D breast, more than 100 µM with TK-10 renal and 31.7 µM in the assay on UO-31 renal.

For `O=C1CC2(CCN(CC3COc4ccccc4O3)CC2)C(=O)N1N1CCCCCC1` (stereo unspecified), the TGI in the assay with 786-0 renal, with ACHN renal, in the assay on BT-549 breast, with CCRF-CEM leukemia, in the assay on HOP-92 NSCLC and in the assay on M14 melanoma was more than 100 µM throughout. The TGI in the assay on MALME-3M melanoma, with MCF7 breast, in the assay on MDA-MB-435, in the assay on OVCAR-3 ovarian, with OVCAR-4 ovarian and in the assay on RXF 393 renal was more than 100 µM in each case. In addition, the TGI in the assay on SF-539 CNS, in the assay on SK-MEL-2 melanoma, in the assay with T-47D breast, in the assay on TK-10 renal and in the assay with UO-31 renal was more than 100 µM in each case.
